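Each compound was tested at five concentrations against cells in 96-well plates for 48 hours. Abbreviation: GI50, concentration required for 50% inhibition of growth. TGI denotes the concentration required for complete inhibition of growth.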
Legend:
Assay in all cases: DTP human tumour cell line panel, 48 h
K-562 leukemia = tested on: K-562 leukemia
OVCAR-3 ovarian = tested on: OVCAR-3 ovarian
OVCAR-8 ovarian = tested on: OVCAR-8 ovarian
UACC-62 melanoma = tested on: UACC-62 melanoma
SN12C renal = tested on: SN12C renal
DU-145 prostate = tested on: DU-145 prostate
IGROV1 ovarian = tested on: IGROV1 ovarian
RXF 393 renal = tested on: RXF 393 renal
SF-268 CNS = tested on: SF-268 CNS
SR leukemia = tested on: SR leukemia
TK-10 renal = tested on: TK-10 renal
HCT-15 colon = tested on: HCT-15 colon
EKVX NSCLC = tested on: EKVX NSCLC
LOX IMVI melanoma = tested on: LOX IMVI melanoma
NCI/ADR-RES ovarian = tested on: NCI/ADR-RES ovarian
UACC-257 melanoma = tested on: UACC-257 melanoma
BT-549 breast = tested on: BT-549 breast
NCI-H23 lung = tested on: NCI-H23 lung
HL-60(TB) leukemia = tested on: HL-60(TB) leukemia
SF-539 CNS = tested on: SF-539 CNS
COLO 205 colon = tested on: COLO 205 colon
MCF7 breast = tested on: MCF7 breast
CAKI-1 renal = tested on: CAKI-1 renal
U251 CNS = tested on: U251 CNS
HCT-116 colon = tested on: HCT-116 colon
SK-OV-3 ovarian = tested on: SK-OV-3 ovarian
HOP-62 NSCLC = tested on: HOP-62 NSCLC
A498 renal = tested on: A498 renal
NCI-H460 lung = tested on: NCI-H460 lung

Structure (SMILES): COC(=O)[C@H]1[C@@H](O)[C@@]2(O)c3c(OC)cc(OC)cc3O[C@@]2(c2ccc(OC)cc2)[C@@H]1c1ccccc1
- GI50 (K-562 leukemia): 9.61 nM
- TGI (K-562 leukemia): 6820 nM
- GI50 (OVCAR-3 ovarian): 22.3 nM
- TGI (OVCAR-3 ovarian): 304 nM
- GI50 (OVCAR-8 ovarian): 32.7 nM
- TGI (OVCAR-8 ovarian): 408 nM
- GI50 (UACC-62 melanoma): 38.3 nM
- TGI (UACC-62 melanoma): 569 nM
- GI50 (SN12C renal): 19 nM
- TGI (SN12C renal): 214 nM
- GI50 (DU-145 prostate): 17.3 nM
- TGI (DU-145 prostate): 207 nM
- GI50 (IGROV1 ovarian): 20.7 nM
- TGI (IGROV1 ovarian): 1340 nM
- GI50 (RXF 393 renal): 10.5 nM
- TGI (RXF 393 renal): 78.2 nM
- GI50 (SF-268 CNS): 25.6 nM
- TGI (SF-268 CNS): 492 nM
- GI50 (SR leukemia): 14.2 nM
- TGI (SR leukemia): 16700 nM
- GI50 (TK-10 renal): 45.5 nM
- TGI (TK-10 renal): 166 nM
- GI50 (HCT-15 colon): 10.9 nM
- TGI (HCT-15 colon): 447 nM
- GI50 (EKVX NSCLC): 20.6 nM
- TGI (EKVX NSCLC): 360 nM
- GI50 (LOX IMVI melanoma): 11.5 nM
- TGI (LOX IMVI melanoma): 75.9 nM
- GI50 (NCI/ADR-RES ovarian): 19.8 nM
- TGI (NCI/ADR-RES ovarian): 101 nM
- GI50 (UACC-257 melanoma): 44.8 nM
- TGI (UACC-257 melanoma): 143 nM
- GI50 (BT-549 breast): 39.9 nM
- TGI (BT-549 breast): 213 nM
- GI50 (NCI-H23 lung): 15.5 nM
- TGI (NCI-H23 lung): 146 nM
- GI50 (HL-60(TB) leukemia): 18.3 nM
- TGI (HL-60(TB) leukemia): 108 nM
- GI50 (SF-539 CNS): 7.9 nM
- TGI (SF-539 CNS): 72 nM
- GI50 (COLO 205 colon): 15.3 nM
- TGI (COLO 205 colon): 52 nM
- GI50 (MCF7 breast): 6.7 nM
- TGI (MCF7 breast): 231 nM
- GI50 (CAKI-1 renal): 28.5 nM
- TGI (CAKI-1 renal): 2720 nM
- GI50 (U251 CNS): 23.8 nM
- TGI (U251 CNS): 749 nM
- GI50 (HCT-116 colon): 10.2 nM
- TGI (HCT-116 colon): 179 nM
- GI50 (SK-OV-3 ovarian): 11.9 nM
- TGI (SK-OV-3 ovarian): 231 nM
- GI50 (HOP-62 NSCLC): 11.8 nM
- TGI (HOP-62 NSCLC): 101 nM
- GI50 (A498 renal): 10 nM
- TGI (A498 renal): 48.5 nM
- GI50 (NCI-H460 lung): 5.37 nM

— PubChem BioAssay (NCI)
